Columns and labels:
Caspase-1 [1] = biological target: T1, Caspase-1 (Homo sapiens, UniProt P29466); assay: In vitro cleavage of the probe by caspase-1 (fluorescence / FRET change); format: biochemical; conditions: for in vitro cleavage: 10 µM probe, 10 nM caspase-1, E/S ratio 1/1000, 25 cycles: 1 min. intervals
T1 sequence (P29466 120-297 limits assumed): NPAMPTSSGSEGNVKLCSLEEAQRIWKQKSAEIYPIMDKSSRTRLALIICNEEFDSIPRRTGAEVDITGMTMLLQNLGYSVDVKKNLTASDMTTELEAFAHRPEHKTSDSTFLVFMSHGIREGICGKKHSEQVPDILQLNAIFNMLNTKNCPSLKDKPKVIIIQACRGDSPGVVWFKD
T1 sequence (P29466 317-404 limits assumed): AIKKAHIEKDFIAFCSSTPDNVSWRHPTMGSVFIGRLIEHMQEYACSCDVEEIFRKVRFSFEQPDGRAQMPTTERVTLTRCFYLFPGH
Experimental: (§1) The E/S ratio was 1/1000, 25 cycles: 1 min. intervals. • Figure 5: Cellular assay with Probe III; PMA=Phorbol-12-myristate-13-acetate; LPS=Lipopolysaccharide; zVAD=carbobenzoxy-valyl-alanyl-asparty-[O-methyl]-fluoromethylketone • Figure 6A-E: Kinetic characterization of probes II, VI, V, IV, and VII. • Figure 7: Cell permeability assay.

[2] = Cellular toxicity (summary statement); format: cell-based; conditions: summary of biological assays
Caspase-1 [3] = biological target: T1, Caspase-1; assay: Specificity of the probe towards caspase-1; format: biochemical; conditions: summary of biological assays
Experimental: as §1, with “The E/S ratio was 1/1000, 25 cycles: 1 min. intervals. • Figures 4A-C: show the in vitro cleavage of 10 µM probe VI in the presence of 10 nM caspase-1. […] The” for “The”

Experimental for THP-1 cells: THP-1 cells were differentiated with PMA in 4-well glass chambers for 48 hours. 2 hours before the assay zVAD-fmk was added to negative controls. Probes were then added to the cells in 5 µM final concentration and the probe uptake was studied by fluorescence microscopy.

| SMILES | in vitro cleavage (Caspase-1 [1]) | FRET change (Caspase-1 [1]; Figure 1A, cleavage by caspase-1) | change of fluorescence intensity in response to cleavage by caspase-1 (Caspase-1 [1]; Figure 1A, dependence on enzyme dose) | FRET change (concentration dependence) (Caspase-1 [1]; summary of biological assays) | toxicity [2] | specificity (Caspase-1 [3]) | Cell permeability (THP-1 cells) | Cellular entry (time) (THP-1 cells) |
| --- | --- | --- | --- | --- | --- | --- | --- | --- |
| CCN(CC)c1ccc2cc(C(=O)NNC(=O)[C@H](CC(=O)O)NC(=O)[C@@H]3CCCN4C(=O)CC[C@H](NC(=O)c5cc6ccc(OC)cc6oc5=O)C(=O)N34)c(=O)oc2c1 [Probe III] | cleaved very efficiently | about 10 fold | enzyme dose-dependent manner | - Concentration dependent FRET change | - No sign of toxicity | - Superiorly specific | - Cell permeability |  |
| CCCCCCCCN(CCCCCCCC)c1ccc2c(COC(=O)CCCC(=O)NNC(=O)[C@H](CC(=O)O)NC(=O)[C@@H]3CCCN4C(=O)CC[C@H](NC(=O)c5cc6ccc(OC)cc6oc5=O)C(=O)N34)cc(=O)oc2c1 [Probe I] |  |  |  |  |  |  |  | - Cellular entry within 5-7 min. |
| CCN(CC)c1ccc2cc(C(=O)NCC(=O)NCCCCCCCCNC(=O)[C@H](CC(=O)O)NC(=O)[C@@H]3CCCN4C(=O)CC[C@H](NC(=O)c5cc6ccc(OC)cc6oc5=O)C(=O)N34)c(=O)oc2c1 [Probe VI] | cleaved very efficiently |  |  |  |  |  |  |  |

Reference: EP2848696A1, “Caspase-1 imaging probes” (Sanofi-Aventis Deutschland GmbH, priority 2013, dated 2015)
